{
  "source": "patent US20220274979A1",
  "about": "(Bayer Pharma Aktiengesellschaft, priority 2018, published 2022)",
  "data": [
    {"target": "T1, Epidermal Growth Factor Receptor (EGFR) (Homo sapiens, UniProt P00533)", "T1 construct": "purchased Sigma-Aldrich E3641", "T1 sequence (P00533 25-1210)": "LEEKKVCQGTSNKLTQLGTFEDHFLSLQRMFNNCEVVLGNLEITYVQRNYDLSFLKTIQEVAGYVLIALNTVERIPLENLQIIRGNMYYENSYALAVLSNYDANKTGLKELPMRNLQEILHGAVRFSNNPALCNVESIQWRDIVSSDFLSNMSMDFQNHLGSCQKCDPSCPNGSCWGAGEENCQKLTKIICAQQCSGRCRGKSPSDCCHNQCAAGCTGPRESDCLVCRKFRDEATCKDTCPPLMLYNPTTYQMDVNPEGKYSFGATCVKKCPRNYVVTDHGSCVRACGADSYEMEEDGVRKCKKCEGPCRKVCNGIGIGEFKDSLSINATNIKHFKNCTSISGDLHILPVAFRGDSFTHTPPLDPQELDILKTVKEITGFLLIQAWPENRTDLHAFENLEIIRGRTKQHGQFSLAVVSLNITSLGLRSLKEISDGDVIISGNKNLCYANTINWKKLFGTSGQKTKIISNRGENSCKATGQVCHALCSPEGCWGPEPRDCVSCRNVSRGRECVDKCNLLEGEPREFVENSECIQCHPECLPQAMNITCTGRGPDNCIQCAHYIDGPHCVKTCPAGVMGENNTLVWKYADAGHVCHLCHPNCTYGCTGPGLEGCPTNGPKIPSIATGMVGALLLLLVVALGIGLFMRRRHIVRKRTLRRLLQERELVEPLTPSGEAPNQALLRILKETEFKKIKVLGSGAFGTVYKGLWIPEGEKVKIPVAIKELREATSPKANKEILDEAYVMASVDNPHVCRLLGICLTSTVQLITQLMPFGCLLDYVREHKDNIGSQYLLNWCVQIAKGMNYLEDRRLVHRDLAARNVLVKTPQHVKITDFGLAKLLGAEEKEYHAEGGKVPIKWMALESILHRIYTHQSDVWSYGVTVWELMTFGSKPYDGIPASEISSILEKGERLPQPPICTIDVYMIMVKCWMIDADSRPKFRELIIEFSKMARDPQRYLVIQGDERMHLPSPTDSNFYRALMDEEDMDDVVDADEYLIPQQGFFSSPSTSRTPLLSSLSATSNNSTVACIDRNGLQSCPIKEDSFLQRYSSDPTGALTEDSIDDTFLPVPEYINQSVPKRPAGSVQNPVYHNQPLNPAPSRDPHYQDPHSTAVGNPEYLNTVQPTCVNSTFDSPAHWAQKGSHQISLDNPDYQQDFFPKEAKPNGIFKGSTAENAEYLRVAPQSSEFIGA", "assay": "EGFR kinase assay (TR-FRET)", "format": "biochemical", "settings": "10 μM ATP; read-out: EGFR kinase inhibition IC50", "excerpt": "EGFR inhibitory activity of compounds of the present invention was quantified employing the TR-FRET based EGFR assay as described in the following paragraphs.\nEpidermal Growth Factor Receptor (EGFR) affinity purified from human carcinoma A431 cells (Sigma-Aldrich, # E3641) was used as kinase. As substrate for the kinase reaction the biotinylated peptide biotin-Ahx-[…] (SEQ ID NO: 8, C-terminus in amid form) was used which can be purchased e.g. form the company Biosyntan GmbH (Berlin-Buch, Germany).\nFor the assay 50 nL of a 100 fold concentrated solution of the test compound in DMSO was pipetted into a black low volume 384 well microtiter plate (Greiner Bio-One, Frickenhausen, Germany), 2 μL of a solution of EGFR in aqueous assay buffer [50 mM Hepes/HCl pH 7.0, 1 mM MgCl2, 5 mM MnCl2, 0.5 mM activated sodium ortho-vanadate, 0.005% (v/v) Tween-20]were added and the mixture was incubated for […] at 22° C. to allow pre-binding of the test compounds to the enzyme before the start of the kinase reaction. Then the kinase reaction was started by the addition of 3 μL of a solution of adenosine-tri-phosphate (ATP, 16.7 μM=>final conc. in the 5 μL assay volume is 10 μM) and substrate (1.67 μM =>final conc. in the 5 μL assay volume is 1μM) in assay buffer and the resulting mixture was incubated for a reaction time of […] at 22° C. The concentration of EGFR was adjusted depending of the activity of the enzyme lot and was chosen appropriate to have the assay in the linear range, typical concentration were about 3 U/ml. The reaction was stopped by the addition of 5 μl of a solution of HTRF detection reagents (0.1 μM streptavidine-XL665 [Cis Biointernational]and 1 nM PT66-Tb-Cryptate, an terbium-cryptate labelled anti-phospho-tyrosine antibody from Cis Biointernational [instead of the PT66-Tb-cryptate PT66-Eu-Chelate from Perkin Elmer can also be used]) in an aqueous EDTA-solution (80 mM EDTA, 0.2% (w/v) bovine serum albumin in 50 mM HEPES pH 7.5).\nThe resulting mixture was incubated 1 h at 22° C. to allow the binding of the biotinylated phosphorylated peptide to the streptavidine-XL665 and the PT66-Eu-Chelate. Subsequently the amount of phosphorylated substrate was evaluated by measurement of the resonance energy transfer from the PT66-Tb-Cryptate to the streptavidine-XL665. Therefore, the fluorescence emissions at 620 nm and 665 nm after excitation at 337 nm were measured in a HTRF reader, e.g. a Pherastar (BMG Labtechnologies, Offenburg, Germany) or a Viewlux (Perkin-Elmer). The ratio of the emissions at 665 nm and at […] was taken as the measure for the amount of phosphorylated substrate.", "units": {"IC50": "µM"}, "values": [
      {"molecule": "CC(=O)NCCOc1cc2c(N[C@H](C)c3cccc(Br)c3)nc(C)nc2cn1", "note": "[Example 62, N-{2-[(4-{[(1R)-1-(3-bromophenyl)ethyl]amino}-2-methylpyrido[3,4-d]pyrimidin-6-yl)oxy]ethyl}acetamide]", "IC50": "> 20"},
      {"molecule": "Cc1nc(NC(C)c2ccc(-c3ccccc3CN(C)C)s2)c2cc(N3CC(NC(=O)C4CCCCC4)C3)ncc2n1", "note": "(centres unmarked) [Example 90, N-[1-(4-{[1-(5-{2-[(dimethylamino)methyl]phenyl}thiophen-2-yl)ethyl]amino}-2-methylpyrido[3,4-d]pyrimidin-6-yl)azetidin-3-yl]cyclohexanecarboxamide]", "IC50": "> 20"},
      {"molecule": "Cc1nc(N[C@H](C)c2cccc(Br)c2)c2nc(OCc3ccccc3)ncc2n1", "note": "[Example 20, 6-(benzyloxy)-N-[(1R)-1-(3-bromophenyl)ethyl]-2-methylpyrimido[5,4-d]pyrimidin-4-amine]", "IC50": "> 20"},
      {"molecule": "Cc1nc(NC(C)c2ccc(-c3ccccc3CN(C)C)s2)c2cc(N3CC(NC(=O)CC4CC4)C3)ncc2n1", "note": "(centres unmarked) [Example 91, 2-cyclopropyl-N-[1-(4-{[1-(5-{2-[(dimethylamino)methyl]phenyl}thiophen-2-yl)ethyl]amino}-2-methylpyrido[3,4-d]pyrimidin-6-yl)azetidin-3-yl]acetamide]", "IC50": "> 20"},
      {"molecule": "Cc1nc(N[C@H](C)c2cccc(Br)c2)c2cc(NCCS(C)(=O)=O)ncc2n1", "note": "[Example 83]", "IC50": "> 20"},
      {"molecule": "Cc1nc(NC(C)c2ccc(-c3ccccc3CN(C)C)s2)c2cc(NCCn3ccnc3)ncc2n1", "note": "(centres unmarked) [Example 56, N4-[1-(5-{2-[(dimethylamino)methyl]phenyl}-2-thienyl)ethyl]-N6-[2-(1H-imidazol-1-yl)ethyl]-2-methylpyrido[3,4-d]pyrimidine-4,6-diamine]", "IC50": "> 20"},
      {"molecule": "Cc1nc(N[C@H](C)c2cccc(Br)c2)c2nc(N3CCOCC3)ncc2n1", "note": "[Example 22, N-[(1R)-1-(3-bromophenyl)ethyl]-2-methyl-6-(morpholin-4-yl)pyrimido[5,4-d]pyrimidin-4-amine]", "IC50": "> 20"},
      {"molecule": "CNCc1ccccc1-c1ccc(C(C)Nc2nc(C)nc3cnc(F)cc23)s1", "note": "(centres unmarked) [Example 36, 6-fluoro-2-methyl-N-[1-(5-{2-[(methylamino)methyl]phenyl}thiophen-2-yl)ethyl]pyrido[3,4-d]pyrimidin-4-amine]", "IC50": "> 20"},
      {"molecule": "CCOc1cc2c(N[C@H](C)c3cccc(Br)c3)nc(C)nc2cn1", "note": "[Example 5, N-[(1R)-1-(3-bromophenyl)ethyl]-6-ethoxy-2-methylpyrido[3,4-d]pyrimidin-4-amine]", "IC50": "> 20"},
      {"molecule": "Cc1nc(NC(C)c2ccc(-c3ccccc3CN(C)C)s2)c2cc(N3CC(NS(=O)(=O)c4ccccc4)C3)ncc2n1", "note": "(centres unmarked) [Example 94, N-[1-(4-{[1-(5-{2-[(dimethylamino)methyl]phenyl}thiophen-2-yl)ethyl]amino}-2-methylpyrido[3,4-d]pyrimidin-6-yl)azetidin-3-yl]benzenesulfonamide]", "IC50": "> 20"},
      {"molecule": "CC(=O)NCCNc1cc2c(N[C@H](C)c3cccc(Br)c3)nc(C)nc2cn1", "note": "[Example 44, N-{2-[(4-{[(1R)-1-(3-bromophenyl)ethyl]amino}-2-methylpyrido[3,4-d]pyrimidin-6-yl)amino]ethyl}acetamide]", "IC50": "> 20"},
      {"molecule": "Cc1nc(NC(C)c2ccc(-c3ccccc3CN(C)C)s2)c2cc(OCCO)ncc2n1", "note": "(centres unmarked) [Example 74, 2-[(4-{[1-(5-{2-[(dimethylamino)methyl]phenyl}thiophen-2-yl)ethyl]amino}-2-methylpyrido[3,4-d]pyrimidin-6-yl)oxy]ethanol]", "IC50": "> 20"},
      {"molecule": "Cc1nc(NC(C)c2ccc(-c3ccccc3CN(C)C)s2)c2cc(N3CC(NC(=O)c4ccccc4)C3)ncc2n1", "note": "(centres unmarked) [Example 88, N-[1-(4-{[1-(5-{2-[(dimethylamino)methyl]phenyl}thiophen-2-yl)ethyl]amino}-2-methylpyrido[3,4-d]pyrimidin-6-yl)azetidin-3-yl]benzamide]", "IC50": "> 20"},
      {"molecule": "COc1cc2c(N[C@H](C)c3ccc(F)c(C4CC4)c3)nc(C)nc2cn1", "note": "[Example 12]", "IC50": "> 20"}
    ]}
  ]
}
